Measurements: a melting point compilation (Tetko et al.; mined from patent text by program, amines drawn as free bases though some values may be those of a salt)

melting point [°C]	SMILES
67	CN1CCc2c(Cl)csc2C(c2ccccc2)C1 (stereo unspecified)
129 to 130	O=C(c1cccs1)c1cccc2cc[nH]c12
93.7 to 95.7	COc1ccc2ncc(C(N)=O)cc2c1
201 to 202	CCOC(=O)c1[nH]c2cc(Cl)c(Cl)cc2c1-c1ccccc1
214 to 216	CS(=O)(=O)c1ccc(-c2cnn(-c3ccc(Cl)cc3)c(=O)c2-c2ccc(F)cc2)cc1
83.5 to 86.5	CCc1cccc(CC)c1NC(=NCc1cccc(CCl)c1)Nc1c(CC)cccc1CC
54 to 55	C1=C(c2ccccc2)SCCS1
188 to 190	CC(=O)Nc1ncc(-c2cccc3ccccc23)o1
36 to 37	CCC(C)(C)c1ccc(OCCCCNC(=O)CS(=O)(=O)c2ccc([N+](=O)[O-])cc2)c(C(C)(C)CC)c1
211 to 213	O=C(/C=C/c1ccc(Br)cc1)/C=C/c1ccc(Br)cc1
118 to 120	O=C(Nc1cc(Cl)ccn1)c1ccccn1
218	O=C(O)c1nn(-c2ccc(Cl)cc2)c2c1CCCC2
220 to 222	O=C1CCC(N2Cc3c(OCc4ccc(C(=O)NCCN5CCCCC5)cc4)cccc3C2=O)C(=O)N1 (stereo unspecified)
81 to 83	CCCCCCCCCCCCCCCCCCOc1cc(C(=O)O)cc(C(=O)OC)c1
150 to 151	COc1nc(N2CCOCC2)c(Cl)nc1NS(=O)(=O)c1cccc(Cl)c1Cl
118 to 121	CCCCn1c(=O)n(CCC)c(=O)c2c(N)n(CCCl)nc21
222 to 223	COC(=O)c1ccccc1NC(=O)c1c(-c2ccccc2)c(-c2ccc(F)cc2)c(C=O)n1C(C)C
123 to 125	NCCOc1cccc2[nH]ccc12
238 to 239	COc1ccc(-c2cnn(-c3cccc(C(=O)O)c3)c2)cc1
124 to 126	O=C(c1cccnc1)N1CCC(c2cccc(Cl)c2)=N1
162 to 164	C=CCc1c(O)ccc2ncccc12
201 to 202	CCCS(=O)(=O)c1ccc(NS(=O)(=O)c2cccs2)c2[nH]c(C(=O)OCC)cc12
30 to 32	CCOC(=O)c1c(C(F)F)nc(C(F)(F)F)c(C(=O)OCC)c1C1CC1
153 to 154	CCOC(=O)C=Cn1c(=O)n2nc(C(=O)OCC)cc2c2cc(OC)ccc21

melting point [°C]	SMILES
174	Cc1cc(=O)c(C(=O)O)c(C)n1C1CC(C)(C)NC(C)(C)C1
127 to 130	CCCc1nc2c(N)nc3cc(OCCN4CCCS4(=O)=O)ccc3c2s1
40 to 41	COC(COc1ccc(Br)c(C)c1C)OC
108	CCCCCCCCCCCCCCCCSCCCCCCCCCCC(=O)NN
195 to 197	Brc1ccc2c(c1)C(c1ccncc1)=Cc1ccccc1O2
124 to 126	C[C@@](N)(Cc1ccc(-c2cncnc2)cc1)C(=O)Nc1cc(Cl)cc(Cl)c1
238	C1=c2ccccc2=C2N=c3ccc4ccccc4c3=C2C1
196 to 197	CC(=O)NC(=Cc1cccs1)C1=NC(=Cc2ccc([N+](=O)[O-])cc2)C(=O)O1
90	O=C(O)Cc1ccc(CNC(=O)C2Cc3ccccc3N2S(=O)(=O)c2ccc(-c3cccc(C(F)(F)F)c3)cc2)cc1 (stereo unspecified)
113 to 115	CC(COc1cccc2oc(C#N)cc(=O)c12)OC=O (stereo unspecified)
119	CC(Nc1ccc(Cc2ccccc2)cc1)C(=O)O (stereo unspecified)
112 to 114	O=Cc1cc(OCCCC(=O)O)ccc1[N+](=O)[O-]
161	CC(c1cc(Cl)cc([N+](=O)[O-])c1O)c1cc(Br)cc([N+](=O)[O-])c1O (stereo unspecified)
235	Cc1[nH]c(/C=C2\C(=O)Nc3cc(NC(=O)c4c[nH]cc(-c5ccc(F)cc5)c4=O)ccc32)c(C)c1CC(=O)N1CCOCC1
191	O=C(CN1C(=O)c2ccccc2C1=O)Nc1ccccc1Nc1ccccc1
119 to 120	CCOC(=O)C=Cc1csc(-c2ccc(OC)c(C(C)(C)C)c2)c1
112 to 113	C=C1C(=O)OC2C1CCC(C)=CCCC1(C)OC21 (stereo unspecified)
155 to 160	CCCc1ccc(O)c(NC(=O)C(=O)OCC)c1
171 to 173	NS(=O)(=O)c1ccc(NS(=O)(=O)/C=C/c2ccccc2)cc1
167 to 168	Cc1c(NC(=O)c2ccc(OCC3CC3)cc2)ccc2cc(CNCC3CCOCC3)[nH]c12
148 to 149	CC(=O)Nc1scc(C)c1C(=O)c1ccccc1Cl
162	O=C(/C=C/c1cccc(S(=O)(=O)N2CCN(c3cccc([N+](=O)[O-])c3)CC2)c1)NO
157 to 159	O=C(NCCCCN1CCC(c2ccc3c(c2OCCO)CCCC3)CC1)c1sc(-c2ccc(C(F)(F)F)cc2)nc1CO
193 to 194	CC(C)(C)N1C(=O)c2cnc(-c3ccccc3)nc2N(C(=O)CN2CCCCC2)c2ccccc21

melting point [°C]	SMILES
104	Cc1cc(I)ccc1Nc1c(C2=NC(C)(C)CO2)ccc(F)c1F
204 to 205	CS(=O)(=O)Nc1cc2c(c(C(=O)O)c1)NCCCC2
62.5 to 63	COC(=O)C(C)N(C(=O)CS)c1c(C)cccc1C (stereo unspecified)
173	COc1ccc(S(=O)(=O)N(C)c2ccc(Cl)cc2C(O)c2ccccc2Cl)cc1OC (stereo unspecified)
228	Cc1c(Cl)cccc1S(=O)(=O)Nc1ccc2ncccc2c1
226 to 228	CC1Cc2cc(S(N)(=O)=O)cc(C(=O)NC3CCN(Cc4ccccc4)CC3)c2O1 (stereo unspecified)
61 to 62	CCCc1nccn1N=Cc1ccccc1
213 to 215	O=C(Nc1cccc(C(F)(F)F)c1)Nc1ccc2[nH]c(C(F)(F)F)nc2c1
238 to 241	CCCCc1ncc(C=C2C(=O)Nc3ccc(Cl)cc32)n1Cc1ccc(C(=O)OC)cc1
182 to 184	CC(=O)Oc1ccc(C(=O)O)c2ccccc12
99 to 102	Cc1cc(SC#N)c(C(C)(C)C)cc1O
128 to 132	C=C(C)CSCC(C)C1CC=C2C3=C(CCC21C)C1(C)CCC(O)C(C)(C)C1CC3 (stereo unspecified)
96.5 to 97.5	CCCOc1ccc(CCCOc2nn(Cc3ccccc3)cc2CC(=O)O)c(Oc2ncc(C(F)(F)F)cc2Cl)c1
202 to 204	Nc1nc(N)nc(C2CCN(c3ccccc3)CC2)n1
209 to 211	CCCn1nc2c(N)nc3c(c2c1CC(C)(C)S(C)(=O)=O)CCCC3
74 to 75	CCCCCC#CCOc1ccc2ccc(=O)oc2c1
368 to 370	O=C(O)c1cccc(N2C(=O)c3ccc([N+](=O)[O-])cc3C2=O)c1
256 to 258	Nc1ccc(C2=NNC(=O)Cc3cc4c(cc32)OCO4)cc1Cl
263 to 267	CCNC(=O)c1ccc(N2CCN(Cc3cnc4c(c3)[nH]c(=O)n3cccc43)CC2)c(F)c1
184 to 186	O=c1cc2c(nn1-c1ccccc1)-c1cc(Cl)ccc1CC2
40 to 70	CN1C=CCC(C(=O)NCCc2c[nH]c3ccccc23)=C1
190 to 192	O=C(O)c1cc([N+](=O)[O-])ccc1NCc1ccco1
258 to 260	Cc1onc(-c2ccccc2)c1-c1[nH]c2ccccc2c1C(=O)C(=O)N(C)C
> 300	O=C1Nc2ccc(NC(=O)c3cccn(-c4ccc(F)cc4)c3=O)cc2/C1=C/c1ccc[nH]1

melting point [°C]	SMILES
162 to 163	COc1ccnc(C(=O)c2[nH]c3cc(Cl)ccc3c2NC(=O)CC(C)C)c1
149	CC(C)(C)OC(=O)N[C@@H](Cc1cc(F)cc(F)c1)[C@H](O)CCl
230	Nc1nc2ccc(CO)cc2n1Cc1cccc2cccnc12
94.7	COc1ccc(C(F)(F)F)cc1NC(=O)CCl
58 to 60	CCOC(=O)C(Cc1ccc(OCCN2CCC(C)(C)c3cc(C(=NOC)c4ccccc4)ccc32)cc1)OCC(F)(F)F (stereo unspecified)
78 to 80	CCOC(=O)Cc1cc(C)c(C(=O)c2ccccc2)n1C
112 to 113	CC(=O)C1CCC2C3CCC4CC(OC(=O)CI)CCC4(C)C3C(OC(=O)CI)CC12C (stereo unspecified)
186 to 187	O=C1CC(/C=C/c2ccccc2)Nc2ccccc2N1Cc1ccccc1 (stereo unspecified)
96	NS(=O)(=O)c1ccc(-c2c(COCCCO)n[nH]c2-c2ccc(Cl)cc2)cc1
175 to 177	Cc1ccc(-c2nc3ccc(C)cn3c2C(O)C(=O)N(C)C)cc1 (stereo unspecified)
152 to 154	CCOC(=O)C1=C(C)NC(=O)N(C(=O)CC)C1c1cccc([N+](=O)[O-])c1 (stereo unspecified)
178 to 180	CCn1nc2c(n1)C(N1CCN(C)CC1)=Nc1cc(F)ccc1N2
79 to 80	CCc1ncnc(NC(C)c2ccc([Si](C)(C)C)cc2)c1Cl (stereo unspecified)
67 to 71	O=C(CO)NCCCOCCCCOCCCNC(=O)CO
107 to 109	CCOC(=O)c1csc(-n2ccnc2)n1
270 to 272	N#Cc1cc(-c2ccccc2)c(C(=O)O)cn1
129 to 130	CCOCC(=NO)C(C)(C)NOC(CNC(C)(C)C(C)=NO)Cn1ccnc1[N+](=O)[O-] (stereo unspecified)
273 to 277	N#CC(C(=O)Nc1ccccc1)C(=O)c1nn(-c2ccccc2)c2c1Cc1ccccc1-2 (stereo unspecified)
64 to 66	CCSc1ccc(Oc2ccc(Cl)c(Cl)c2)nc1C#N
251 to 253	Nc1c(C(=O)O)cc(Br)nc1Br
170 to 171	Cc1cc(OCCc2nc(-c3ccccc3)oc2C)cc(C)c1CN(O)C(N)=O
205 to 207	CONC(=O)COc1c(-c2ccccc2)c(=O)[nH]c2cc(Cl)ccc12
237	CCCC1=C(C#N)C(c2ccccc2Br)c2c[nH]nc2N1 (stereo unspecified)
165 to 170	CCC1c2c(C#N)ncn2-c2cnc(Nc3ccc(C(=O)NC4CCN(C5CCN(CC(C)C)CC5)CC4)cc3OC)nc2N1C(C)C (stereo unspecified)

SMILES	melting point [°C]
O=C(O)C(=O)c1cn(Cc2ccccc2)c2ccc(Oc3ccc(C(F)(F)F)cc3Cl)cc12	152 to 154
CC(O)C1(c2cccc(Cl)c2)CCCN(C)CC1 (stereo unspecified)	123 to 124
CCOC(=O)C(CC1C(O)C2CCN1CC2)c1ccccc1 (stereo unspecified)	148
N#Cc1c(Cl)c(Cl)c(NCCN)c(Cl)c1Cl	140 to 144
Cc1cc2c(cc1-c1ccc(O)c(C=O)c1)C(C)(C)CCC2(C)C	138 to 139
